Measurements: PMC8113459, “Selective inhibition of cullin 3 neddylation through covalent targeting DCN1 protects mice from acetaminophen-induced liver toxicity” (Nature Communications, 2021)
Several values for one entry are separate records, joined by “and”; a condition that tells them apart may be missing. Equal entries are not always repeated. Blank lines part the entries; values can stand above or below the compound they belong to.

What was measured:
[1] = target: T1, DCN1 (Homo sapiens, UniProt Q96GG9); assay: High-resolution LC-tandem mass spectrometry of tryptic peptides; conditions: for Modifications (DI-548 adduct on DCN1 tryptic peptide): B2 Sequest HT (DI-548) sample, confidence High, not found in Apo sample
Procedure: Equal amounts of proteins (10 μg) were denatured in 8 M urea. Cysteines were reduced with 10 mM DTT at 45 °C for 30 min and alkylated using 50 mM chloroacetamide (RT, 30 min). Upon dilution of urea to <1.2 M, digestion with 250 ng of sequencing grade, modified trypsin (Promega) was carried out overnight at 37 °C. Reaction was terminated by acidification with trifluoroacetic acid (0.1% v/v) and peptides were purified using SepPak C18 cartridge following the manufacturer’s protocol (Waters Corp). An aliquot of the resulting peptides (~2 µg) was resolved on a nanocapillary reverse phase column (Acclaim PepMap C18, 2 μm, 50 cm, Thermo Fisher Scientific) using 0.1% formic acid/acetonitrile gradient at 300 nL/min and directly introduced in to Q Exactive HF mass spectrometer (Thermo Fisher Scientific, San Jose, CA). MS1 scans were acquired at 60 K resolution (AGC target = 3e^6, max IT = 50 ms). Data-dependent high-energy C-trap dissociation MS/MS spectra were acquired for the 20 most abundant ions (Top20) following each MS1 scan (15 K resolution; AGC target = 1e^5; relative CE ~ 28%). Proteins were identified by searching the data against restricted database containing DCN1 protein sequence and common contaminants using Sequest HT (Proteome Discoverer v2.4, Thermo Fisher Scientific). Search parameters included MS1 mass tolerance of 10 ppm and fragment tolerance of 0.02 Da; two missed cleavages were allowed; carbamidomethylation (+57.02146 Da) and DI-1548 adduct (+510.2665 Da) of cysteine, and oxidation of methionine, deamidation of asparagine and glutamine were considered as potential modifications. False discovery rate (FDR) was determined using target decoy validator and proteins/peptides with an FDR of ≤1% were retained for further analysis. The DI-1548 modified peptide PSMs were manually verified.
Target sequence in this assay (Q96GG9 58-259 limits assumed): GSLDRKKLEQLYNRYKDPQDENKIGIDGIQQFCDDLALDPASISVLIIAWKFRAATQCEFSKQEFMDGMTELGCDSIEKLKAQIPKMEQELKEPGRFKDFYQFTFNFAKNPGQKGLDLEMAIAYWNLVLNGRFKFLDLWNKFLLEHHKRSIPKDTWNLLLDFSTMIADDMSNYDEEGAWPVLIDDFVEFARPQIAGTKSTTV

[2] = target: T1, DCN1; assay: Competitive FP binding assay
Procedure: Competitive FP binding assay was performed as previously described. The IC50 and Ki values of DI-1548 and DI-1548DD were determined in competitive binding experiments. Mixtures of preincubated protein/probe complex solution in the assay buffer (196 μL) and compounds in DMSO (4 μL) were added into assay plates which were incubated at room temperature for 30 min with gentle shaking. The concentrations of DCN1 protein and fluorescent probe were 50 and 5 nM, respectively. […] FP values in millipolarization units were measured using the Infinite M-1000 plate reader (Tecan U.S., Research Triangle Park, NC) in Microfluor 1 96-well, black, round-bottom plates (Thermo Fisher Scientific, Waltham, MA) at an excitation wavelength of 485 nm and an emission wavelength of 530 nm. IC50 values were determined by nonlinear regression fitting of the competition curves using the dose–response inhibition equation (four parameters, variable slopes) included in the Prism/GraphPad software. Ki values were calculated using methods described previously.
Target sequence in this assay (Q96GG9 whole entry): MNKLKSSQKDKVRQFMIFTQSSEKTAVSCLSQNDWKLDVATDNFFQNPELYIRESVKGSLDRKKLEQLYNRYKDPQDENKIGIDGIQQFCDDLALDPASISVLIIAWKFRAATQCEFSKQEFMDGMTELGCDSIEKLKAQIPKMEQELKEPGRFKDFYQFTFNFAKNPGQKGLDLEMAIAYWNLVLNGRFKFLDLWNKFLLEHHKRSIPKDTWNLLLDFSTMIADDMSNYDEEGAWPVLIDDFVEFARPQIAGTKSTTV

[3] = system: APAP-induced liver injury; assay: APAP-induced liver injury: H&E histology of liver; type: in vivo, mouse
Procedure: The in vivo studies were performed under animal protocols (PRO00007499) and (PRO00006638) approved by the Institutional Animal Care & Use Committee of the University of Michigan, in accordance with the recommendations in the Guide for the Care and Use of Laboratory Animals of the National Institutes of Health. C57BL/6 WT mice (~8 weeks, male, normal chow) were purchased from the Jackson Laboratory and randomly divided into eight groups (8–9 mice per group) treated (IP) as follows: phosphate-buffered saline vehicle once per day for 3 days (G1), APAP alone a single dose at 400 mg/kg on day 1 (G2), DI-1859 alone 25 mg/kg once per day for 3 days (G3), DI-1859 alone 50 mg/kg once per day for 3 days (G4), pretreatment (1 day before the APAP administration) with DI-1859 at 25 mg/kg once per day for 3 days followed with APAP at 400 mg/kg on day (G5), pretreatment (1 day before the APAP administration) with DI-1859 at 50 mg/kg once per day for 3 days followed with APAP at 400 mg/kg on day (G6), APAP a single dose at 400 mg/kg (3 h before the first DI-1859 administration) followed with DI-1859 at 25 mg/Kg once per day for 3 days (G7), and APAP a single dose at 400 mg/kg (3 h before the first DI-1859 administration) followed with DI-1859 at 50 mg/Kg once per day for 3 days (G8).
To induce acute liver injury, animals received PBS or APAP (400 mg/kg, sigma, A7085) through I.P. injection at 12 p.m. and were sacrificed 48 h afterward. To examine the protective effect of DI-1859 (groups 5 and 6), animals were I.P. injected with compound for 3 consecutive days (9 a.m. on each day, starting 1 day before APAP administration). To examine the restorative effect of DI-1859 (groups 7 and 8), animals were I.P. injected with compound 3 h after APAP administration followed by two additional treatments (9 a.m. on the next 2 days). Body weight and blood glucose level measurement, along with blood sample collection, were performed at 12 p.m. on each day.
Liver paraffin sections were stained with H&E.

Modifications (DI-548 adduct on DCN1 tryptic peptide) ([1]; peptide [R].AATQCEFSK.[Q], DCN_1 [77-85]): 1xDI-548_Haibin [C5]
residue of DCN1 modified ([1]; tryptic digested peptides): forms covalent bond with Cys115
FP signal of the competitive binding curve ([2]; Concentration (nM) 0.016935, duplicates): 44.2 and 44.7
FP signal of the competitive binding curve ([2]; Concentration (nM) 0.050805, duplicates): 43.5 and 45.8
FP signal of the competitive binding curve ([2]; Concentration (nM) 0.152416, duplicates): 44.1 and 44.8
FP signal of the competitive binding curve ([2]; Concentration (nM) 0.457247, duplicates): 43.8 and 44
FP signal of the competitive binding curve ([2]; Concentration (nM) 1.37174, duplicates): 41.3
FP signal of the competitive binding curve ([2]; Concentration (nM) 4.11523, duplicates): 32.5 and 31.9
FP signal of the competitive binding curve ([2]; Concentration (nM) 12.3457, duplicates): 17.8 and 17.9
FP signal of the competitive binding curve ([2]; Concentration (nM) 37.037, duplicates): 15.7 and 15.4
FP signal of the competitive binding curve ([2]; Concentration (nM) 111.111, duplicates): 14.3 and 14.5
FP signal of the competitive binding curve ([2]; Concentration (nM) 333.333, duplicates): 15.3 and 15.7
FP signal of the competitive binding curve ([2]; Concentration (nM) 1000, duplicates): 16.2 and 15.8
IC50 ([2]; DCN1 50 nM, probe 5 nM, 30 min): 4.6 nM
Ki ([2]; DCN1 50 nM, probe 5 nM, 30 min): < 1 nM
Structure (SMILES): C=C(CN1CCOCC1)C(=O)NC[C@@H](NC(=O)[C@H](Cc1nc2ccc(C(C)C)cc2s1)NC(=O)CC)C1CCCCC1 [DI-1548]
Modifications (DI-548 adduct on DCN1 tryptic peptide) ([1]; peptide [R].AATQCEFSKQEFMDGMTELGCDSIEK.[L], DCN_1 [77-102], 1xCarbamidomethyl [C21] and 1xDeamidated [Q4]): 1xCarbamidomethyl [C21]; 1xDeamidated [Q4]; 1xDI-548_Haibin [C5]
Modifications (DI-548 adduct on DCN1 tryptic peptide) ([1]; peptide [R].AATQCEFSKQEFMDGMTELGCDSIEK.[L], DCN_1 [77-102], 1xCarbamidomethyl [C21]): 1xCarbamidomethyl [C21]; 1xDI-548_Haibin [C5]

Structure (SMILES): C=C(CN(C)C)C(=O)NC[C@@H](NC(=O)[C@H](Cc1nc2ccc(C(C)C)cc2s1)NC(=O)CC)C1CCCCC1 [DI-1859]
liver tissue damage by the compound alone ([3]; 25 and 50 mg/kg qD for 3 days (G3, G4), ALT and histology): caused no liver tissue damage
effect on APAP-induced liver tissue damage (histology) ([3]; prevention setting, 25 mg/kg): largely abolished tissue distortion and greatly reduced acetaminophen-induced tissue damage
effect on APAP-induced liver tissue damage (histology) ([3]; prevention setting, 50 mg/kg): near completely prevented APAP-induced liver tissue damage
effect on APAP-induced liver tissue damage (histology) ([3]; treatment setting, 25 and 50 mg/kg): significantly reduced the liver damage induced by APAP
